Values quoted from earlier work as cited in EP0496548A1, “Carbacyclin analogs” (PURDUE RESEARCH FOUNDATION, priority 1991, dated 1992).

Details: in vivo

Row | half-life ('generally') [min] | SMILES | serum half-life (attributed to enzymatic oxidation)
1 |  | CCCCC[C@H](O)/C=C/[C@@H]1[C@H]2C/C(=C/CCCC(=O)O)C[C@H]2C[C@H]1O [carbacyclin] | comparable to that of prostacyclin
2 | 2 to 3 | CCCCC[C@H](O)/C=C/[C@@H]1[C@H]2C/C(=C/CCCC(=O)O)O[C@H]2C[C@H]1O [prostacyclin, Prostacyclin] | 
